Measured values as given in ChEMBL document CHEMBL6109044, “From challenges to solutions: A review of fourth-generation EGFR tyrosine kinase inhibitors to overcome the C797S triple mutation in non-small cell lung cancer” (Eur J Med Chem, 2025).

Assays:
[1] = Antiproliferative activity against human NCI-H1975 EGFR T790M/C797S/L858R cells; type: functional, cell-based
[2] = Antiproliferative activity against mouse Ba/F3 EGFR-Del19/T790M/C797S cells assessed as reduction in cell growth incubated for 72 hrs by CCK-8 assay; type: functional, cell-based
[3] = Antiproliferative activity against mouse Ba/F3 EGFR-T790M/C797S/L858R cells assessed as reduction in cell growth incubated for 72 hrs by CCK-8 assay; type: functional, cell-based
[4] = target: T1, Epidermal growth factor receptor (Homo sapiens, UniProt P00533, C797S/L858R/T790M); assay: Inhibition of EGFR L858R/T790M/C797S triple mutant (unknown origin)
[5] = target: Epidermal growth factor receptor (Homo sapiens, UniProt P00533, L858R/T790M); assay: Inhibition of EGFR L858R/T790M double mutant (unknown origin)
cells = conditions: Mus musculus, Ba/F3 EGFR-T790M/C797S/L858R
[6] = tested on: Epidermal growth factor receptor (Homo sapiens), P00533 [L858R,T790M,C797S]; conditions: dose 0.05 nM
[7] = tested on: Epidermal growth factor receptor (Homo sapiens), P00533 [L858R,T790M,C797S]; conditions: dose 1.0 nM
[8] = Antiproliferative activity against mouse Ba/F3 EGFR-Del19/T790M/C797S cells; type: functional, cell-based
[9] = target: T2, Epidermal growth factor receptor (Homo sapiens, UniProt P00533); assay: Inhibition of wild type EGFR (unknown origin)
[10] = target: T2, Epidermal growth factor receptor; assay: Inhibition of wild type EGFR (unknown origin) by HTRF assay
[11] = tested on: Epidermal growth factor receptor (Homo sapiens), P00533 [L858R,T790M,C797S]; conditions: dose 200.0 nM, tested as the 2H-labelled form
[12] = target: T1, Epidermal growth factor receptor; assay: Inhibition of EGFR L858R/T790M/C797S triple mutant (unknown origin) at 20 nM relative to control
A549 = assay: Antiproliferative activity against human A549 cells; type: functional, cell-based
[13] = target: Epidermal growth factor receptor (Homo sapiens, UniProt P00533, C797S/EX19DEL/T790M); assay: Inhibition of EGFR Del19/T790M/C797S triple mutant (unknown origin)
[14] = Antiproliferative activity against mouse Ba/F3 EGFR cells; type: functional, cell-based
NIH3T3 [15] = assay: Antiproliferative activity against mouse NIH3T3 cells harboring EGFR L858R/T790M/C797S assessed as reduction in cell growth measured for 4 to 7 days by CellTiter-Glo Luminescent assay; type: functional, cell-based
NIH3T3 [16] = assay: Antiproliferative activity against mouse NIH3T3 cells harboring EGFR del19/T790M/C797S assessed as reduction in cell growth measured for 4 to 7 days by CellTiter-Glo Luminescent assay; type: functional, cell-based
[17] = Antiproliferative activity against mouse Ba/F3 EGFR-Del19/T790M/C797S cells assessed as reduction in cell viability at 10 uM incubated for 72 hrs by MTT assay relative to control; type: functional

T1 sequence (P00533 25-1210 T790M/C797S/L858R limits assumed): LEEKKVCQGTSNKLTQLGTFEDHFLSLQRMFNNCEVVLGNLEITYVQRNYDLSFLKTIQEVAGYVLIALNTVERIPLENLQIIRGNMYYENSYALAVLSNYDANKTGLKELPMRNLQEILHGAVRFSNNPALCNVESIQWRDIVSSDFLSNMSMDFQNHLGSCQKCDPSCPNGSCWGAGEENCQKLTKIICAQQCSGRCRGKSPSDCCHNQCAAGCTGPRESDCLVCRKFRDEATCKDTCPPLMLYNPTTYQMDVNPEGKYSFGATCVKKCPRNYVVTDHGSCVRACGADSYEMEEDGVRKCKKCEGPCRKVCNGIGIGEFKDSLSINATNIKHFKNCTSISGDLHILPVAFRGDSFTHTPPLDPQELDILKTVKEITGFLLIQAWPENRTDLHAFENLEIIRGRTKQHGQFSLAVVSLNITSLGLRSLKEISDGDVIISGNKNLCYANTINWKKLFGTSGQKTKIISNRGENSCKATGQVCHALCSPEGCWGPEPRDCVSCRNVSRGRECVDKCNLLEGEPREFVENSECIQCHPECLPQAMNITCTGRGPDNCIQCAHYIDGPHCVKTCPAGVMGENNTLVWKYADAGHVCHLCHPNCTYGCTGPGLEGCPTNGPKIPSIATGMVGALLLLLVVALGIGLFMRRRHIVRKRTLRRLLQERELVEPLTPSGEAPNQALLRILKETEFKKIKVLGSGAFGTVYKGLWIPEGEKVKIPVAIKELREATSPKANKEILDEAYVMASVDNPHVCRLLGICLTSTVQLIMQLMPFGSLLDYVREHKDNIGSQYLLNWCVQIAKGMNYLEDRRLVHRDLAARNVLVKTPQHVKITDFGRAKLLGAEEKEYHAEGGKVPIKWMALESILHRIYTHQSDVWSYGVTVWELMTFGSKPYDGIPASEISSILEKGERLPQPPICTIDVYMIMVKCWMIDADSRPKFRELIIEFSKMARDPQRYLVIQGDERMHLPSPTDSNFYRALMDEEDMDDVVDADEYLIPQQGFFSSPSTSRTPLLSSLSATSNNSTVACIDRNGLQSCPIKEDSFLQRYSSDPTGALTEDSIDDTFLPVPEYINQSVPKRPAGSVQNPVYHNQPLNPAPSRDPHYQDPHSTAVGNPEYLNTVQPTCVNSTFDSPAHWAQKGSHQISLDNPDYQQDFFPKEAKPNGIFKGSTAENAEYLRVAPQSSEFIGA
T2 sequence (P00533 whole entry): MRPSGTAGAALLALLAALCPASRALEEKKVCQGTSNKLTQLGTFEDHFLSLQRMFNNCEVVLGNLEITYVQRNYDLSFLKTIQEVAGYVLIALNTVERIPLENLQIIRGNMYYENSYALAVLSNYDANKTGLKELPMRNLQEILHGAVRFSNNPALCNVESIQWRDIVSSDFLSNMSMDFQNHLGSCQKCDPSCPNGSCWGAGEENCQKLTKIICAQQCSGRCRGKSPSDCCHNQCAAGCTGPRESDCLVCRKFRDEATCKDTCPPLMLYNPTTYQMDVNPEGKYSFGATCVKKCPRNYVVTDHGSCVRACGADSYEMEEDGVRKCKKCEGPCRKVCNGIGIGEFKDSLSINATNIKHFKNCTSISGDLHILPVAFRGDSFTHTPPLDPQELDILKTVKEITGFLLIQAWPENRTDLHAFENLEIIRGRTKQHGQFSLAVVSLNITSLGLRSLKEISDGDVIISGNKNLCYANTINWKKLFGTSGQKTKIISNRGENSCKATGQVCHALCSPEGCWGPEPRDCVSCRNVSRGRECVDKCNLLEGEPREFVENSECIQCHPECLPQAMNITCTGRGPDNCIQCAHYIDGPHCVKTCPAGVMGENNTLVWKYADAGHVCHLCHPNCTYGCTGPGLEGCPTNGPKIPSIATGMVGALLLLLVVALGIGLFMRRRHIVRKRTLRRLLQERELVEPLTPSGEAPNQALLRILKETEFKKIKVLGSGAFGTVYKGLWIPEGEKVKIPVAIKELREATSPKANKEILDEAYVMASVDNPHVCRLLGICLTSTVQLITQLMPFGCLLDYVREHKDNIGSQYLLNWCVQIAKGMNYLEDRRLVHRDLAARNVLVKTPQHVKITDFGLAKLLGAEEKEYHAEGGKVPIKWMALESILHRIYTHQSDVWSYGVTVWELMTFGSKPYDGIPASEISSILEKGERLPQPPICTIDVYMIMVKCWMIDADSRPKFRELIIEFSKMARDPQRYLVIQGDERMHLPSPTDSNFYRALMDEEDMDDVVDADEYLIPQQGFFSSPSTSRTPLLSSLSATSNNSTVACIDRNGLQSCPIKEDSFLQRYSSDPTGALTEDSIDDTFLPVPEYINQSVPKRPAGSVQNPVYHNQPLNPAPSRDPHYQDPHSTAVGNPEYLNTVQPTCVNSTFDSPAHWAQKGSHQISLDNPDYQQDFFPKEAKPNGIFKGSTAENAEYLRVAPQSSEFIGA
Sequence of Epidermal growth factor receptor (Homo sapiens), P00533 [L858R,T790M,C797S] (P00533 whole entry T790M/C797S/L858R): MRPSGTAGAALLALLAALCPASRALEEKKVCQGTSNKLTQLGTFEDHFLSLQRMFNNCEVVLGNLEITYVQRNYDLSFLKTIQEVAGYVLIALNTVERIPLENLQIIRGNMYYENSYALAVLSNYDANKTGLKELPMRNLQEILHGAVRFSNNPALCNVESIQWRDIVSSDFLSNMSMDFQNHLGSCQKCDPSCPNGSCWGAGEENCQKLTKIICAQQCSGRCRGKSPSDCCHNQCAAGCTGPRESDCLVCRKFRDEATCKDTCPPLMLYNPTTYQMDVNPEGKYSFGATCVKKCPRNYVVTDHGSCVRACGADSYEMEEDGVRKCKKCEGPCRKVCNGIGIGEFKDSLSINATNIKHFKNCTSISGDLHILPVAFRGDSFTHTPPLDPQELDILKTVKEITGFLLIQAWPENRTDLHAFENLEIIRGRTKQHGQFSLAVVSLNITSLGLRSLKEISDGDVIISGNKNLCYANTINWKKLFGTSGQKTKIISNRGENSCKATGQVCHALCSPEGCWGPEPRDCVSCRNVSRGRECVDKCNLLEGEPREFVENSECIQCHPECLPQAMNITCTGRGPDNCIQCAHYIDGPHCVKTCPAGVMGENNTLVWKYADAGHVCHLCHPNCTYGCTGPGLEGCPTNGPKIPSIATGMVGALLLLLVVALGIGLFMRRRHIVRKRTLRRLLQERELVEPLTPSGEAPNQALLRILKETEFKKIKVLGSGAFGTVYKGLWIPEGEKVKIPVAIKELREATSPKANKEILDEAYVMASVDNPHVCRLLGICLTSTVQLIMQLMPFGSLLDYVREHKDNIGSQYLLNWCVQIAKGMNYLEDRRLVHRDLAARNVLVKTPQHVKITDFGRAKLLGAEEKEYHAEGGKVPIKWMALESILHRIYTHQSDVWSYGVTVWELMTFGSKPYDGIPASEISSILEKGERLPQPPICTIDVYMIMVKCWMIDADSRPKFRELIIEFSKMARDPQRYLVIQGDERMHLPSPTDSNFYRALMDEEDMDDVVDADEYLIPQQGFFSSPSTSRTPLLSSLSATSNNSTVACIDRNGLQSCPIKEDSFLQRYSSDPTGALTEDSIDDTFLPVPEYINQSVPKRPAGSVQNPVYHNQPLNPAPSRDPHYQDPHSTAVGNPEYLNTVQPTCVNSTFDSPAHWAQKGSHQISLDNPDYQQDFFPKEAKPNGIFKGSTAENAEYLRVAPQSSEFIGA
Sequence of Epidermal growth factor receptor (Homo sapiens, UniProt P00533, C797S/EX19DEL/T790M) (P00533 whole entry, looked up, stated change not applied): as the sequence (P00533 whole entry) above

N#Cc1ccc(O)c(-c2nc(NCc3ncccn3)c3ccccc3n2)c1
IC50 [1]: 1200 nM

CN1CCN(c2ccc(Nc3ncc(Cl)c(Nc4ccccc4P(C)(C)=O)n3)cc2Br)CC1
IC50 [2]: 120 nM | IC50 [3]: 90 nM

CN1CCC(c2ccc(-c3ccc4c(c3)C(=O)N(C(C(=O)Nc3nccs3)c3cc(F)ccc3O)C4)cc2)CC1 (stereo not drawn)
IC50 [4]: 0.083 nM | IC50 [5]: 0.063 nM

COc1cc(N2CCC(N3CCN(C)CC3)CC2)ccc1Nc1ncc(Cl)c(Nc2ccccc2P(C)(C)=O)n1 [BRIGATINIB]
IC50 (cells): 15.6 nM | inhibition [6]: 4.82% | inhibition [7]: 57% | IC50 [8]: 139 nM

C=CC(=O)C1CCC[C@@H](n2nc(-c3ccc4ccccc4c3)c3c(N)ncnc32)C1 (stereo partly drawn)
IC50 [4]: 88 nM | IC50 [9]: 16 nM

N#Cc1ccc(O)c(-c2nc(NCc3cccnc3)c3ccccc3n2)c1
IC50 [9]: > 50 nM

CCC(=O)Nc1cccc(-c2c(-c3ccc(N4CCN(C)CC4)cc3)[nH]c3ncnc(OCC(C)C)c23)c1
IC50 [10]: 0.4 nM

Cc1cc(Nc2ncc(Br)c(Nc3ccccc3NS(=O)(=O)C3CC3)n2)ccc1N1CCN(C)CC1
inhibition [11]: 99% | inhibition ([6]; tested as the 2H-labelled form): 59% | inhibition ([7]; tested as the 2H-labelled form): 86.9%

[2H]C([2H])([2H])c1cc(Nc2ncc(Br)c(Nc3ccccc3NS(=O)(=O)C3CC3)n2)ccc1N1CCN(C([2H])([2H])[2H])CC1
inhibition [12]: 97.2% | IC50 (cells): 16 nM | IC50 (A549): 957 nM | IC50 [8]: 12 nM

CCC(=O)N[C@H]1CC[C@@H](N2C(=O)N(c3ccccc3Cl)Cc3cnc(Nc4ccc(N5CCN(C)CC5)c(C)c4)nc32)CC1
IC50 [3]: 320 nM

COc1cc(N2CCC(N3CCN(C)CC3)CC2)ccc1Nc1ncc(Cl)c(Nc2ccccc2NS(C)(=O)=O)n1
IC50 [4]: 8 nM | IC50 [13]: 5 nM | IC50 [9]: 184 nM

CCc1cc(Nc2ncc(Cl)c(Nc3ccc(C)c(C)c3P(C)(C)=O)n2)c(OC)cc1N1CC2(CCN(C)CC2)C1
IC50 [14]: > 1000 nM | IC50 (cells): 43.3 nM | IC50 [8]: 128 nM

CC(C)n1c2cc(Nc3ccnc(-c4cnn(S(=O)(=O)C5CC5)c4)n3)ncc2c2c(OCC(F)(F)F)cc(N3CCN(C)CC3)cc21
IC50 (NIH3T3 [15]): 45 nM | IC50 (NIH3T3 [16]): 20 nM | IC50 [9]: 0.92 nM

Oc1ccccc1-c1nc(NCC2CCOC2)c2ccccc2n1 (stereo not drawn)
Activity [17]: 91%

C=CC(=O)Nc1cc(Nc2nccc(-c3cn(C)c4ccccc34)n2)c(OC)cc1N(C)CCN(C)C [OSIMERTINIB]
IC50 [14]: 171 nM | IC50 (NIH3T3 [15]): 2700 nM | IC50 (cells): > 1000 nM | IC50 (NIH3T3 [16]): 1200 nM | IC50 [2]: 3380 nM | IC50 [3]: 4140 nM | IC50 [8]: > 1000 nM
